Where a name gives a salt, the structure may show the parent alone.
Columns and labels:
[1] = tested on: PAR; assay: trypsin-induced contraction of rat-isolated bladder strips, naive animals; conditions: for effect on trypsin-induced bladder contraction at the other concentrations: other concentrations tested; for amplitude of bladder contraction: trypsin 3000 BAEE U/mL; for reduction in bladder contraction: trypsin
Description: (§1) Purpose of the experiment: Evaluate the role of 3-(2-Chloro-phenyl)-1-[4-(4-fluoro-benzyl)-piperazin-1-yl]-propenone on the amplitude of bladder contraction induced by trypsin and TFLLR. The experiment was led in parallel on naïve bladders and on bladders subjected to inflammation procedure. The effect of the compound of the invention was compared with that of a reference PAR1 antagonist: compound SCH203099, (Ahn et al. Biochem. Pharmacol. 60(10:1425-1434, 2000).
(§2) In naïve rats (no administration of cyclophosphamide) or 24 hours after administration of cyclophosphamide, the animals were anaesthetised with pentobarbital (60 mg/kg) and euthanized. The bladder was rapidly taken and placed in modified Krebs-Henseleit oxygenated solution having the following composition (mM): NaCl 114; KCl 4.7; CaCl2 2.5; MgSO4 1.2; KH2PO4 1.2; NaHCO3 25 and glucose 11.7 (pH 7.4 with 95% O2 and 5% CO2). The bladder was cleaned of conjunctive tissue, weighed, the distal and proximal portions removed and the bladder cut in longitudinal direction into two equal strips. These strips were attached with silk thread and immersed in a 10 mL isolated organ bath (EMKA Technologies) containing the Krebs-Henseleit oxygenated solution with 95%:5% mixture of O2/CO2 held at 37° C. The bladder strips were connected via the silk thread to isometric sensors (IT50 model, EMKA Technologies) connected to amplifiers (EMKA Technologies). Contractile responses were recorded using IOX2® software (EMKA Technologies).
(§3) For an initial stabilisation period of at least 90 minutes, rinsing operations were carried out every 15 minutes and the tensioning of each bladder strip readjusted to 1.0 g. The strips were then exposed to 50 mM KCl to verify their viability. If the contraction amplitude of the strips was less than 1.0 g, the tissues were discarded and not included in the experiment. After a second stabilisation and washing period of at least 45 minutes, a concentration of the compound of the invention or of the reference product (SCH203099) or of the vehicle was incubated for 30 minutes. A concentration-accumulative response curve to the selective agonist PAR1, to TFLLR (0.1 μM to 0.1 mM) or to trypsin (10 U to 10,000 BAEE U/mL) was plotted.
(§4) These experiments were conducted on naive bladders. The protocol followed was the same as the protocol described in Example 1.

[2] = tested on: PAR; assay: trypsin-induced contraction of rat-isolated bladder strips, inflammation conditions (cyclophosphamide); conditions: for amplitude of bladder contraction / reduction in bladder contraction: inflamed rat bladder; for amplitude of bladder contraction: trypsin 3000 BAEE U/mL; for reduction in bladder contraction: trypsin
Description: as §1
(§5) To induce inflammation of the bladder, cyclophosphamide was bilaterally injected into the rats (Female Wistar Han rats weighing 250 to 275 g on the day of the experiment, obtained from Charles River laboratory, France) via intraperitoneal route at a dose of 150 mg/kg in a final volume of 5 mL/kg.
as §2, §3

[3] = molecular target: T1, PAR1 (Rattus norvegicus, UniProt P26824); assay: TFLLR-induced contraction of rat-isolated bladder strips, naive animals
T1 construct: the bladder cut in longitudinal direction into two equal strips; from tissue; host or cells: isolated bladder strips of female Wistar Han rats (naive or 24 h after cyclophosphamide)
T1 sequence (P26824 22-432): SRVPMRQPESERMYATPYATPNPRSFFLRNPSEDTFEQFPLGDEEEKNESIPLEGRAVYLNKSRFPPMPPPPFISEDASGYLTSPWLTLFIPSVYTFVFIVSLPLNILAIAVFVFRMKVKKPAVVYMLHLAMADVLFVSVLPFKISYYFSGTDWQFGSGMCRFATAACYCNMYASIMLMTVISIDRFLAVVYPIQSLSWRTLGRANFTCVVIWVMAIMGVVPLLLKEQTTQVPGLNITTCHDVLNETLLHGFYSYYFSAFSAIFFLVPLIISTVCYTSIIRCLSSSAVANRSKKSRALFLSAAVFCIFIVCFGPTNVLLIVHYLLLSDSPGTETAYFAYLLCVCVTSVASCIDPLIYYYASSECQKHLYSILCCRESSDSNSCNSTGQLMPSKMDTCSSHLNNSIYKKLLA
Description: as §1, §2, §3, §4

[4] = molecular target: T1, PAR1; assay: TFLLR-induced contraction of rat-isolated bladder strips, inflammation conditions (cyclophosphamide); conditions: inflamed rat bladder, 100 μM TFLLR
Description: as §1, §5, §2, §3

[5] = solubility of the compound in the organ bath experiment; assay type: physicochemical; conditions: noted at 10 μM and 30 μM in organ bath

| amplitude of bladder contraction ([3]; 100 μM TFLLR, compound 10 nM) [g] | reduction in bladder contraction ([3]; 100 μM TFLLR, compound 10 nM) | amplitude of bladder contraction ([3]; 100 μM TFLLR, compound 1 μM) [g] | Structure (SMILES) | effect on trypsin-induced bladder contraction versus vehicle ([1]; compound 10 μM) | effect on trypsin-induced bladder contraction at the other concentrations [1] | amplitude of bladder contraction ([1]; compound 10 μM) [g] | amplitude of bladder contraction ([2]; compound 10 μM) [g] | amplitude of bladder contraction ([2]; compound 30 μM) [g] | reduction in bladder contraction ([2]; compound 10 μM) [%] | reduction in bladder contraction ([2]; compound 30 μM) | amplitude of bladder contraction ([3]; 100 μM TFLLR, compound 10 μM) [g] | amplitude of bladder contraction ([4]; compound 10 μM) [g] | reduction in bladder contraction ([4]; compound 10 μM) [%] | amplitude of bladder contraction ([4]; compound 30 μM) [g] | reduction in bladder contraction / contractile response ([4]; compound 30 μM) [%] | effect on trypsin-induced bladder contraction versus vehicle ([1]; compound 30 μM) | amplitude of bladder contraction ([1]; compound 3 μM) [g] | also measured |
| --- | --- | --- | --- | --- | --- | --- | --- | --- | --- | --- | --- | --- | --- | --- | --- | --- | --- | --- |
|  |  |  | CNc1nc(NC2CC2)nc2ccc3c(ccn3Cc3ccc(C(C)C)cc3)c12 [SCH203099] | divided by two | nothing was observed | 0.48 ± 0.11 | 1.77 ± 0.38 | 1.04 ± 0.16 | 35 | 60% | 0.26 ± 0.07 | 0.73 ± 0.10 | 35 | 0.49 ± 0.08 | 55 |  |  | amplitude of bladder contraction ([2]; compound 3 μM): 2.05 ± 0.53 g; reduction in bladder contraction ([2]; compound 3 μM): 25%; effect on TFLLR-induced bladder contraction versus vehicle ([3]; compound 10 μM): divided by two; effect on TFLLR-induced bladder contraction at the other concentrations ([3]; other concentrations tested): nothing was observed; reduction in bladder contraction ([4]; compound 3 μM (no conclusive effect)): 10% |
| 0.21 ± 0.03 | more than 50% | 0.08 ± 0.03 | CCOc1cc2c(c(F)c1OCC)C(=N)N(CC(=O)c1cc(N3CCOCC3)c(OC)c(C(C)(C)C)c1)C2 [atopaxar, [(1-(3-tert-butyl-4-methoxy-5-morpholinophenyl)-2-(5,6-diethoxy-fluoro-1-imino-1,3-dihydro-2H-isoindol-2yl)ethanone hydrobromide] |  |  | 0.36 ± 0.15 |  |  |  |  |  |  |  |  |  | completely abolishes | 0.74 ± 0.19 | effect on trypsin-induced bladder contraction versus vehicle ([1]; compound 1 μM): slight reduction; amplitude of bladder contraction ([1]; compound 1 μM): 1.02 ± 0.20 g; reduction in bladder contraction ([1]; compound 3 μM): 38%; reduction in bladder contraction ([1]; compound 10 μM): 70%; decrease of bladder contraction ([3]; 100 μM TFLLR, compound 1 μM): more than 80% |
|  |  |  | O=C(/C=C/c1ccccc1Cl)N1CCN(Cc2ccc(F)cc2)CC1 [compound of the invention, 3-(2-Chloro-phenyl)-1-[4-(4-fluoro-benzyl)-piperazin-1-yl]-propenone] |  | nothing was observed |  | 1.76 ± 0.30 | 0.92 ± 0.17 | 35 | about 70% | 0.18 ± 0.04 | 0.45 ± 0.13 | 60 | 0.11 ± 0.04 | 90 | divided by two |  | amplitude of bladder contraction ([1]; compound 30 μM): 0.55 ± 0.24 g; effect on trypsin-induced bladder contraction ([2]; inflamed rat bladder (cyclophosphamide), compound up to 3 μM): inactive; amplitude of bladder contraction ([3]; 100 μM TFLLR, compound 3 μM): 0.33 ± 0.05 g; reduction in bladder contraction ([3]; 100 μM TFLLR, compound 3 μM): 45%; reduction in bladder contraction ([3]; 100 μM TFLLR, compound 10 μM): 70%; amplitude of bladder contraction ([3]; 100 μM TFLLR, compound 30 μM): 0.00 ± 0.04 g; effect on TFLLR-induced bladder contraction ([3]; compound 1 μM): inactive; effect on TFLLR-induced bladder contraction ([3]; compound 30 μM): completely abolished; reduction in bladder contraction ([4]; compound up to 3 μM (no conclusive effect)): 10% |
| 0.14 ± 0.02 | 75% | 0.04 ± 0.03 | CCOC(=O)N[C@@H]1CC[C@@H]2[C@@H](C1)C[C@H]1C(=O)O[C@H](C)[C@H]1[C@H]2/C=C/c1ccc(-c2cccc(F)c2)cn1 [vorapaxar, ethyl N-[(3R,3aS,4S,4aR,7R,8aR,9aR)-4-[(E)-2-[5-(3-fluorophenyl)-2-pyridyl]vinyl]-3-methyl-1-oxo-3a,4,4a,5,6,7,8,8a,9,9a-decahydro-3H-benzo[f]isobenzofuran-7-yl]carbamate] | lesser efficacy |  |  |  |  |  |  |  |  |  |  |  |  | 0.79 ± 0.14 | amplitude of bladder contraction ([3]; 100 μM TFLLR, compound 3 nM): 0.31 ± 0.12 g; reduction in bladder contraction ([3]; 100 μM TFLLR, compound 3 nM): ~50%; effect on TFLLR-induced bladder contraction ([3]; compound from 1 μM): completely abolishes; solubility [5]: low solubility |

Source: patent US10265322B2, “Use of PAR-1 antagonists for preventing and/or treating pelvi-perineal functional pathological conditions” (PIERRE FABRE MEDICAMENT, priority 2013, dated 2019)
